Tested on: MV-4-11 cells
Assay: Gene expression microarray analysis (Affymetrix PrimeView) and GSEA
Type: cell-based, human
Design: RFU PODN (11730768_x_at) / Fold change /veh PODN (11730768_x_at) / RFU LINC00158 (11744669_a_at) / Fold change /veh LINC00158 (11744669_a_at) / RFU DUSP10 (11751237_a_at) / Fold change /veh DUSP10 (11751237_a_at) / RFU ID3 (11757404_x_at) / Fold change /veh ID3 (11757404_x_at) / RFU PLEKHG5 (11737974_s_at) / Fold change /veh PLEKHG5 (11737974_s_at) / RFU LRRC4B (11730491_at) / Fold change /veh LRRC4B (11730491_at) / RFU GIMAP4 (11747438_a_at) / Fold change /veh GIMAP4 (11747438_a_at) / RFU KRT8 (11758183_x_at) / Fold change /veh KRT8 (11758183_x_at) / RFU CNN1 (11734310_a_at) / Fold change /veh CNN1 (11734310_a_at) / RFU VPS37D (11726825_at) / Fold change /veh VPS37D (11726825_at) / RFU C10orf10 (11716522_x_at) / Fold change /veh C10orf10 (11716522_x_at) / RFU KIR2DL2 /// KIR2DL4 /// KIR2DL5A /// KIR2DL5B /// KIR2DS1 /// KIR2DS2 /// KIR2DS3 /// KIR2DS4 /// KIR3DL3 /// KIR3DL3 /// KIR3DS1 (11738374_at) / Fold change /veh KIR2DL2 /// KIR2DL4 /// KIR2DL5A /// KIR2DL5B /// KIR2DS1 /// KIR2DS2 /// KIR2DS3 /// KIR2DS4 /// KIR3DL3 /// KIR3DL3 /// KIR3DS1 (11738374_at) / RFU C1QL1 (11718748_at) / Fold change /veh C1QL1 (11718748_at) / RFU TMPRSS4 (11747572_a_at) / Fold change /veh TMPRSS4 (11747572_a_at) / RFU HAMP (11756126_x_at) / Fold change /veh HAMP (11756126_x_at) / RFU RNFT2 (11725882_a_at) / Fold change /veh RNFT2 (11725882_a_at) / RFU NR4A2 (11747474_a_at) / Fold change /veh NR4A2 (11747474_a_at) / RFU ABCC12 (11746883_a_at) / Fold change /veh ABCC12 (11746883_a_at) / RFU TMEM136 (11760407_x_at) / Fold change /veh TMEM136 (11760407_x_at) / RFU CLDN22 /// WWC2 (11732394_at) / Fold change /veh CLDN22 /// WWC2 (11732394_at) / RFU HLA-DPB1 (11760878_x_at) / Fold change /veh HLA-DPB1 (11760878_x_at) / RFU SPINT1 (11716480_a_at) / Fold change /veh SPINT1 (11716480_a_at) / RFU GAP43 (11754022_s_at) / Fold change /veh GAP43 (11754022_s_at) / RFU A4GNT (11735810_at) / Fold change /veh A4GNT (11735810_at) / RFU PRB3 (11715151_x_at) / Fold change /veh PRB3 (11715151_x_at) / RFU TUBB4B (11761932_at) / Fold change /veh TUBB4B (11761932_at) / RFU CAPN14 (11732068_a_at) / Fold change /veh CAPN14 (11732068_a_at) / RFU TMCC2 (11721928_a_at) / Fold change /veh TMCC2 (11721928_a_at) / RFU IRGQ (11745062_a_at) / Fold change /veh IRGQ (11745062_a_at) / RFU FAM174B (11720279_a_at) / Fold change /veh FAM174B (11720279_a_at) / RFU TMPRSS4 (11748680_a_at) / Fold change /veh TMPRSS4 (11748680_a_at) / RFU FAM212B (11763350_a_at) / Fold change /veh FAM212B (11763350_a_at) / RFU PLEKHG5 (11743358_a_at) / Fold change /veh PLEKHG5 (11743358_a_at) / RFU ZSCAN30 (11745921_a_at) / Fold change /veh ZSCAN30 (11745921_a_at) / RFU CMKLR1 (11741424_a_at) / Fold change /veh CMKLR1 (11741424_a_at) / RFU LOC101060620 /// MAPK8IP1 (11723275_at) / Fold change /veh LOC101060620 /// MAPK8IP1 (11723275_at) / RFU SPTSSB (11747773_x_at) / Fold change /veh SPTSSB (11747773_x_at) / RFU PRSS12 (11739890_at) / Fold change /veh PRSS12 (11739890_at) / RFU BIN1 (11741810_x_at) / Fold change /veh BIN1 (11741810_x_at) / RFU WNT11 (11732464_a_at) / Fold change /veh WNT11 (11732464_a_at) / RFU C10orf10 (11716521_a_at) / Fold change /veh C10orf10 (11716521_a_at) / RFU C5orf56 (11738089_at) / Fold change /veh C5orf56 (11738089_at) / RFU CYB561 (11721691_x_at) / Fold change /veh CYB561 (11721691_x_at) / RFU ANKRD19P (11752326_a_at) / Fold change /veh ANKRD19P (11752326_a_at) / RFU OR2T12 /// OR2T33 /// OR2T8 (11738714_s_at) / Fold change /veh OR2T12 /// OR2T33 /// OR2T8 (11738714_s_at) / RFU VCAN (11748164_a_at) / Fold change /veh VCAN (11748164_a_at) / RFU JSRP1 (11732532_at) / Fold change /veh JSRP1 (11732532_at) / RFU KRTAP10-11 (11738290_x_at) / Fold change /veh KRTAP10-11 (11738290_x_at) / RFU MYO3A (11730013_a_at) / Fold change /veh MYO3A (11730013_a_at) / RFU EBF3 (11725865_a_at) / Fold change /veh EBF3 (11725865_a_at) / RFU CAMK2N1 (11719241_x_at) / Fold change /veh CAMK2N1 (11719241_x_at) / RFU C5orf56 (11738088_a_at) / Fold change /veh C5orf56 (11738088_a_at) / RFU OLFML3 (11715873_a_at) / Fold change /veh OLFML3 (11715873_a_at) / RFU LOC100653217 /// NTM (11731650_a_at) / Fold change /veh LOC100653217 /// NTM (11731650_a_at) / RFU MAPK11 (11762145_a_at) / Fold change /veh MAPK11 (11762145_a_at) / RFU FIZ1 (11724087_x_at) / Fold change /veh FIZ1 (11724087_x_at) / RFU OASL (11726364_x_at) / Fold change /veh OASL (11726364_x_at) / RFU SOX15 (11748057_x_at) / Fold change /veh SOX15 (11748057_x_at) / RFU CD79A (11719716_a_at) / Fold change /veh CD79A (11719716_a_at) / RFU HIST1H1D (11736915_at) / Fold change /veh HIST1H1D (11736915_at) / RFU CASKIN2 (11723855_a_at) / Fold change /veh CASKIN2 (11723855_a_at) / RFU LOC730098 (11760151_x_at) / Fold change /veh LOC730098 (11760151_x_at) / RFU OR4N2 (11742367_at) / Fold change /veh OR4N2 (11742367_at) / RFU PRRT2 (11749266_a_at) / Fold change /veh PRRT2 (11749266_a_at) / RFU SNX32 (11753110_a_at) / Fold change /veh SNX32 (11753110_a_at) / RFU CDHR5 (11726645_a_at) / Fold change /veh CDHR5 (11726645_a_at) / RFU RCAN1 (11760418_a_at) / Fold change /veh RCAN1 (11760418_a_at) / RFU FAM167A (11723789_a_at) / Fold change /veh FAM167A (11723789_a_at) / RFU FAM26E (11764081_at) / Fold change /veh FAM26E (11764081_at) / RFU ISYNA1 (11749810_s_at) / Fold change /veh ISYNA1 (11749810_s_at) / RFU ACY1 (11761880_at) / Fold change /veh ACY1 (11761880_at) / RFU 11764098_at / Fold change /veh 11764098_at / RFU SAMD14 (11745864_x_at) / Fold change /veh SAMD14 (11745864_x_at) / RFU NPB (11741838_a_at) / Fold change /veh NPB (11741838_a_at) / RFU TMPRSS6 (11731388_a_at) / Fold change /veh TMPRSS6 (11731388_a_at) / RFU KRTAP10-2 (11738614_at) / Fold change /veh KRTAP10-2 (11738614_at) / RFU ARHGAP8 /// PRR5-ARHGAP8 (11727945_x_at) / Fold change /veh ARHGAP8 /// PRR5-ARHGAP8 (11727945_x_at) / RFU KRTAP5-7 /// NADSYN1 (11734609_at) / Fold change /veh KRTAP5-7 /// NADSYN1 (11734609_at) / RFU RASL12 (11751679_a_at) / Fold change /veh RASL12 (11751679_a_at) / RFU CDKN2B (11736163_a_at) / Fold change /veh CDKN2B (11736163_a_at) / RFU PRF1 (11729649_at) / Fold change /veh PRF1 (11729649_at) / RFU, ZNF638 /// ZNF638-IT1 / Fold change vs veh, ZNF638 /// ZNF638-IT1 / RFU, PANK3 / Fold change vs veh, PANK3 / RFU, SH3YL1 / Fold change vs veh, SH3YL1 / RFU, ZEB2 / Fold change vs veh, ZEB2 / RFU, NRIP1 / Fold change vs veh, NRIP1 / RFU, PTTG1IP / Fold change vs veh, PTTG1IP / RFU, CAPN2 / Fold change vs veh, CAPN2 / RFU, MED14 / Fold change vs veh, MED14 / RFU, SNORA58 / Fold change vs veh, SNORA58 / RFU, C1orf63 / Fold change vs veh, C1orf63 / RFU, LRRFIP1 / Fold change vs veh, LRRFIP1 / RFU, NDUFAF7 / Fold change vs veh, NDUFAF7 / RFU, SLC12A2 / Fold change vs veh, SLC12A2 / RFU, IBTK / Fold change vs veh, IBTK / RFU, ESF1 / Fold change vs veh, ESF1 / Fold change vs veh, TMEM50B / RFU, TAOK1 / Fold change vs veh, TAOK1 / RFU, ACBD3 / Fold change vs veh, ACBD3 / RFU, TMA16 / Fold change vs veh, TMA16 / RFU, RWDD3 / Fold change vs veh, RWDD3 / RFU, BCAT1 / Fold change vs veh, BCAT1 / RFU, EDEM3 / Fold change vs veh, EDEM3 / RFU, TMEM33 / Fold change vs veh, TMEM33 / RFU, WDR75 / Fold change vs veh, WDR75 / RFU, AHCTF1 / Fold change vs veh, AHCTF1 / RFU, TFRC / Fold change vs veh, TFRC / RFU, ZDHHC17 / Fold change vs veh, ZDHHC17 / RFU, NOM1 / Fold change vs veh, NOM1 / RFU, ARL8B / Fold change vs veh, ARL8B / RFU, ZBTB11 / Fold change vs veh, ZBTB11 / RFU, TAMM41 / Fold change vs veh, TAMM41 / RFU, KIAA1704 /// LOC100996395 / Fold change vs veh, KIAA1704 /// LOC100996395 / RFU, ING1 / Fold change vs veh, ING1 / RFU, TRMT61B / Fold change vs veh, TRMT61B / RFU, FUBP3 / Fold change vs veh, FUBP3 / RFU, TP53 / Fold change vs veh, TP53 / RFU, TNKS2 / Fold change vs veh, TNKS2 / RFU, ZFP14 / Fold change vs veh, ZFP14 / RFU, ACTR2 / Fold change vs veh, ACTR2 / RFU, PPP3R1 / Fold change vs veh, PPP3R1 / RFU, PIK3R1 / Fold change vs veh, PIK3R1 / RFU, HNRNPA1 / Fold change vs veh, HNRNPA1 / RFU, RNF170 / Fold change vs veh, RNF170 / RFU, ZNF28 / Fold change vs veh, ZNF28 / RFU, RNGTT / Fold change vs veh, RNGTT / RFU, OGT / Fold change vs veh, OGT / RFU, BRD1 / Fold change vs veh, BRD1 / RFU, MARS / Fold change vs veh, MARS / RFU, ZNF655 / Fold change vs veh, ZNF655 / RFU, FAHD1 / Fold change vs veh, FAHD1 / RFU, BDP1 / Fold change vs veh, BDP1 / RFU, LRRCC1 / Fold change vs veh, LRRCC1 / RFU, ARID1A / Fold change vs veh, ARID1A / RFU, ZNF146 / Fold change vs veh, ZNF146 / RFU, ZNF330 / Fold change vs veh, ZNF330 / RFU, GPN3 / Fold change vs veh, GPN3 / RFU, C9orf123 / Fold change vs veh, C9orf123 / RFU, N4BP2L2 / Fold change vs veh, N4BP2L2 / RFU, ARFIP1 / Fold change vs veh, ARFIP1 / RFU, FAM179B / Fold change vs veh, FAM179B / RFU, BCL10 / Fold change vs veh, BCL10 / RFU, UHRF1BP1L / Fold change vs veh, UHRF1BP1L / RFU, BET1 / Fold change vs veh, BET1 / RFU, CNOT2 / Fold change vs veh, CNOT2 / RFU, ZNF268 / Fold change vs veh, ZNF268 / Fold change vs veh, ZNF507 / RFU, DGCR2 / Fold change vs veh, DGCR2 / RFU, WDSUB1 / Fold change vs veh, WDSUB1 / Fold change vs veh, HSP90B1 /// MIR3652 / RFU, ADSS / Fold change vs veh, ADSS / RFU, GK / Fold change vs veh, GK / RFU, ZNF148 / Fold change vs veh, ZNF148 / RFU, TAF9 / Fold change vs veh, TAF9 / RFU, SLC1A5 / Fold change vs veh, SLC1A5 / RFU, SLMO2 / Fold change vs veh, SLMO2 / RFU, ABCC4 / Fold change vs veh, ABCC4 / RFU, LOC101060439 /// RAP1B / Fold change vs veh, LOC101060439 /// RAP1B / RFU, RFX7 / Fold change vs veh, RFX7 / RFU, GTPBP10 / Fold change vs veh, GTPBP10 / RFU, CNEP1R1 / Fold change vs veh, CNEP1R1 / RFU, BIVM-ERCC5 /// ERCC5 / Fold change vs veh, BIVM-ERCC5 /// ERCC5 / RFU, ILF3 / Fold change vs veh, ILF3 / RFU 11762660_at / Fold change /veh 11762660_at / RFU VCAN (11757783_s_at) / Fold change /veh VCAN (11757783_s_at) / RFU DDX43 (11728927_at) / Fold change /veh DDX43 (11728927_at) / RFU KRT8 (11758188_x_at) / Fold change /veh KRT8 (11758188_x_at) / RFU NKD1 (11759106_at) / Fold change /veh NKD1 (11759106_at) / RFU SRD5A1 (11742802_a_at) / Fold change /veh SRD5A1 (11742802_a_at) / RFU TPSAB1 /// TPSB2 (11721975_s_at) / Fold change /veh TPSAB1 /// TPSB2 (11721975_s_at) / RFU GSTM3 (11746129_a_at) / Fold change /veh GSTM3 (11746129_a_at) / RFU IL23R (11737362_x_at) / Fold change /veh IL23R (11737362_x_at) / RFU TMEM51 (11727254_a_at) / Fold change /veh TMEM51 (11727254_a_at) / RFU PIWIL2 (11732686_x_at) / Fold change /veh PIWIL2 (11732686_x_at) / RFU ORM1 (11744905_x_at) / Fold change /veh ORM1 (11744905_x_at) / RFU CCDC152 (11743942_at) / Fold change /veh CCDC152 (11743942_at) / RFU ECM1 (11717891_a_at) / Fold change /veh ECM1 (11717891_a_at) / RFU IL23R (11748794_a_at) / Fold change /veh IL23R (11748794_a_at) / RFU TNFAIP8L3 (11732012_x_at) / Fold change /veh TNFAIP8L3 (11732012_x_at) / RFU MBOAT4 (11741988_at) / Fold change /veh MBOAT4 (11741988_at) / RFU 11764193_at / Fold change /veh 11764193_at / RFU TMEM53 (11763286_at) / Fold change /veh TMEM53 (11763286_at) / RFU MAGEB2 (11727129_at) / Fold change /veh MAGEB2 (11727129_at) / RFU TMEM200A (11744735_a_at) / Fold change /veh TMEM200A (11744735_a_at) / RFU CCDC152 (11751479_a_at) / Fold change /veh CCDC152 (11751479_a_at) / RFU FAM211A (11726209_a_at) / Fold change /veh FAM211A (11726209_a_at) / RFU RGS16 (11746705_a_at) / Fold change /veh RGS16 (11746705_a_at) / RFU VCAN (11755009_s_at) / Fold change /veh VCAN (11755009_s_at) / RFU RHOB (11743442_s_at) / Fold change /veh RHOB (11743442_s_at) / RFU RGS16 (11720943_a_at) / Fold change /veh RGS16 (11720943_a_at) / RFU RGS16 (11720944_at) / Fold change /veh RGS16 (11720944_at) / RFU, VPS4B / Fold change vs veh, VPS4B / RFU, CREB1 / Fold change vs veh, CREB1 / RFU, DNAJC13 / Fold change vs veh, DNAJC13 / RFU, GNAQ / Fold change vs veh, GNAQ / RFU, CDK5R1 / Fold change vs veh, CDK5R1 / RFU, ZRANB3 / Fold change vs veh, ZRANB3 / RFU, CUL4A / Fold change vs veh, CUL4A / RFU, CCNY / Fold change vs veh, CCNY / RFU, UFL1 / Fold change vs veh, UFL1 / RFU, COG3 / Fold change vs veh, COG3 / RFU, DIAPH2 / Fold change vs veh, DIAPH2 / RFU, SKA2 / Fold change vs veh, SKA2 / RFU, AFF3 / Fold change vs veh, AFF3 / RFU, LMF1 / Fold change vs veh, LMF1 / RFU, IPO11 / Fold change vs veh, IPO11 / RFU, DFFB / Fold change vs veh, DFFB / RFU, FOXP1 / Fold change vs veh, FOXP1 / RFU, CARD8 / Fold change vs veh, CARD8 / RFU, STRN3 / Fold change vs veh, STRN3 / RFU, ADK / Fold change vs veh, ADK / RFU, RASSF2 / Fold change vs veh, RASSF2 / RFU, WIPF1 / Fold change vs veh, WIPF1 / RFU, LARP1B / Fold change vs veh, LARP1B / RFU, RASA1 / Fold change vs veh, RASA1 / RFU, RB1 / Fold change vs veh, RB1 / RFU, PPFIA1 / Fold change vs veh, PPFIA1 / RFU, MAT2A / Fold change vs veh, MAT2A / RFU, CCT5 / Fold change vs veh, CCT5 / RFU, WDR92 / Fold change vs veh, WDR92 / RFU, CUX1 / Fold change vs veh, CUX1 / RFU, TTC7A / Fold change vs veh, TTC7A / RFU, TMEM135 / Fold change vs veh, TMEM135 / RFU, DEPTOR / Fold change vs veh, DEPTOR / RFU, CPM / Fold change vs veh, CPM / RFU, DNAJB6 / Fold change vs veh, DNAJB6 / RFU, CACNA2D3 / Fold change vs veh, CACNA2D3 / RFU, DTX4 / Fold change vs veh, DTX4 / RFU, TFCP2 / Fold change vs veh, TFCP2 / RFU, GMCL1 /// GMCL1P1 / Fold change vs veh, GMCL1 /// GMCL1P1 / RFU, AEBP2 / Fold change vs veh, AEBP2 / RFU, SNHG1 /// SNORD22 /// SNORD25 /// SNORD26 /// SNORD27 /// SNORD28 /// SNORD29 /// SNORD31 / Fold change vs veh, SNHG1 /// SNORD22 /// SNORD25 /// SNORD26 /// SNORD27 /// SNORD28 /// SNORD29 /// SNORD31 / Fold change (Aza/veh), C12orf56 (ProbeSet 11735607_a_at) / Fold change (ACY-1035/veh), C12orf56 (ProbeSet 11735607_a_at) / Fold change (Aza/veh), FGFR1OP (ProbeSet 11751329_s_at) / Fold change (ACY-1035/veh), FGFR1OP (ProbeSet 11751329_s_at) / Fold change (Aza/veh), VPS36 (ProbeSet 11739960_a_at) / Fold change (ACY-1035/veh), VPS36 (ProbeSet 11739960_a_at) / RFU SYPL1 (11715823_x_at) / Fold change /veh SYPL1 (11715823_x_at) / RFU IGFBP7 (11715501_s_at) / Fold change /veh IGFBP7 (11715501_s_at) / RFU REEP3 (11722064_at) / Fold change /veh REEP3 (11722064_at) / RFU IGLL1 (11728026_x_at) / Fold change /veh IGLL1 (11728026_x_at): dose or concentration left out as unconfirmed
Settings: MV-4-11 cells, 48 hours

Nc1ccc(-c2cccs2)cc1NC(=O)c1ccc2c(c1)cc(C1CC1)n2CCN1CCOCC1 [ACY-1035]
RFU CASKIN2 (11723855_a_at): 29.44 RFU

Reference: article PMC5218480 (PLoS ONE, 2017)
